Target: T1, human orexin-2 receptor (OX2R) (Homo sapiens, UniProt O43614)
T1 construct: expressed in transfected cells
T1 sequence (O43614 1-444): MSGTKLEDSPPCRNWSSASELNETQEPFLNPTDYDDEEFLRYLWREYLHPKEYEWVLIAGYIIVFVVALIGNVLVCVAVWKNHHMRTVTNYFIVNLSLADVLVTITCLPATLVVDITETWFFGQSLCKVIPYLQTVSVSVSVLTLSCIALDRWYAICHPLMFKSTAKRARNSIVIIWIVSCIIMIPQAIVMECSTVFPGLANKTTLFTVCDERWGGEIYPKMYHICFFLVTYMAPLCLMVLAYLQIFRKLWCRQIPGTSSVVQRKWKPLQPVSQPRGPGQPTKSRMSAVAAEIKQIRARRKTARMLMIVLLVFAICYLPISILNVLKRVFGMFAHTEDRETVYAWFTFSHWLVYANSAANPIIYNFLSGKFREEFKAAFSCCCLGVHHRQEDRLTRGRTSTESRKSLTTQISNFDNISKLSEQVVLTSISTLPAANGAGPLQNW
Assay: Human OX2R IP1 assay
Format: cell-based
Conditions: T-Rex CHO cells stably overexpressing the human orexin-2 receptor; IP1 accumulation, 1 hr at 37 degrees C
Description: T-Rex CHO cells stably overexpressing the human orexin-2 receptor (OX2R) were induced overnight with 1 μg/mL of doxycycline in a T225 flask. 24 hours post induction, cells were lifted with accutase and plated into a 384-well proxy plate at 30,000 cells/well. Cells were then treated with different test compounds in 1× stimulation buffer containing 10 mM Hepes, 1 mM CaCl2), 0.5 mM MgCl2, 4.2 mM KCl, 146 mM NaCl, 5.5 mM glucose, and 50 mM LiCl, pH 7.4, for 1 hr at 37 degrees C. Following incubation, the reaction was terminated by the addition of detection mix, which is composed of IP1-d2 and anti-IP1-cryptate diluted in lysis buffer as well as 1× stimulation buffer. The plates were allowed to incubate for 1 hour at room temperature and were then read in the ENVISION® multimode plate reader, measuring inositol phosphate levels.
Cisbio IP1 is a cell-based functional assay quantifying the accumulation of inositol monophosphate (IP), a metabolite released as a result of orexin 2 receptor activation through the phospholipase C-Gq signaling pathway. This is a competitive immunoassay in which the IP1 produced by the cells upon receptor activation competes with the IP1 analog coupled to the d2 fluorophore (acceptor) for binding to an anti-IP1 monoclonal antibody labeled with Eucryptate (donor). The measured HTRF-FRET based signal is inversely proportional to the IP1 concentration produced.
The EC50 values reported in Table 2 were obtained according to the human OX2R IP1 assay described above. Data are the mean EC50 values ±S.E.M.

| SMILES | EC50 |
| --- | --- |
| O=C(N[C@H]1CCCN2C(=O)COc3ccccc3C3CCC(CC3)OC[C@@H]12)C1CCCOC1 (stereo in doubt) [Compound 4] | 100 to 1000 nM |
| O=C(N[C@H]1CCCN2C(=O)COc3ccccc3C3CCC(CC3)OC[C@@H]12)C1COCCO1 (stereo in doubt) [Compound 1] | < 100 nM |
| CN1CCOC(C(=O)N[C@H]2CCCN3C(=O)COc4ccccc4C4CCC(CC4)OCC23)C1 (some centres unmarked) [Compound 21] | > 1000 nM |
| CN1CCC1C(=O)N[C@H]1CCCN2C(=O)COc3ccccc3C3CCC(CC3)OCC12 (some centres unmarked) [Compound 19] | > 1000 nM |
| O=C(N[C@H]1CCCN2C(=O)COc3ccccc3C3CCC(CC3)OCC12)C1CCCCO1 (some centres unmarked) [Compound 20] | > 1000 nM |
| O=C(N[C@H]1CCCN2C(=O)COc3ccccc3[C@H]3CC[C@H](CC3)OC[C@@H]12)c1ncco1 [Compound 18] | > 1000 nM |
| CN1CCOC(C(=O)N[C@H]2CCCN3C(=O)COc4ccccc4C4CCC(CC4)OCC23)C1 (some centres unmarked) [Compound 25] | > 1000 nM |
| Cc1ccnc2c1C1CCC(CC1)OCC1[C@@H](NC(=O)C3CCCO3)CCCN1C(=O)CO2 (some centres unmarked) [Compound 17] | < 100 nM |
| O=C(N[C@H]1CCCN2C(=O)COc3ccccc3C3CCC(CC3)OC[C@@H]12)C1CCCO1 (stereo in doubt) [Compound 10] | < 100 nM |
| Cc1cccc2c1C1CCC(CC1)OC[C@H]1[C@@H](NC(=O)C3CCCO3)CCCN1C(=O)CO2 (stereo in doubt) [Compound 14] | < 100 nM |
| O=C(N[C@H]1CCCN2C(=O)COc3ccccc3C3CCC(CC3)OC[C@@H]12)C1CCCOC1 (stereo in doubt) [Compound 11] | 100 to 1000 nM |
| Cc1ccnc2c1C1CCC(CC1)OC[C@H]1[C@@H](NC(=O)C3CCCO3)CCCN1C(=O)CO2 (stereo in doubt) [Compound 13] | < 100 nM |
| O=C(N[C@H]1CCCN2C(=O)COc3ccccc3C3CCC(CC3)OC[C@@H]12)C1CCCCO1 (stereo in doubt) [Compound 2] | < 100 nM |
| CN(C)C(=O)C(=O)N[C@H]1CCCN2C(=O)COc3ccccc3[C@H]3CC[C@H](CC3)OC[C@@H]12 [Compound 7] | < 100 nM |
| CN1CCCC1C(=O)N[C@H]1CCCN2C(=O)COc3ccccc3C3CCC(CC3)OCC12 (some centres unmarked) [Compound 22] | > 1000 nM |
| CN1CCCC1C(=O)N[C@H]1CCCN2C(=O)COc3ccccc3C3CCC(CC3)OCC12 (some centres unmarked) [Compound 24] | > 1000 nM |
| O=C(N[C@H]1CCCN2C(=O)COc3ccccc3C3CCC(CC3)OC[C@@H]12)C1COCCO1 (stereo in doubt) [Compound 8] | 100 to 1000 nM |
| CN1CCC1C(=O)N[C@H]1CCCN2C(=O)COc3ccccc3C3CCC(CC3)OCC12 (some centres unmarked) [Compound 23] | > 1000 nM |
| COCC(=O)N[C@H]1CCCN2C(=O)COc3ccccc3[C@H]3CC[C@H](CC3)OC[C@@H]12 (stereo in doubt) [Compound 3] | < 100 nM |
| COC1(C(=O)N[C@H]2CCCN3C(=O)COc4ccccc4[C@H]4CC[C@H](CC4)OC[C@@H]23)CC1 [Compound 89] | > 1000 nM |
| O=C(N[C@H]1CCCN2C(=O)COc3ccccc3C3CCC(CC3)OC[C@@H]12)C1CCO1 (stereo in doubt) [Compound 9] | 100 to 1000 nM |
| O=C(N[C@H]1CCCN2C(=O)COc3ccccc3[C@H]3CC[C@H](CC3)OC[C@@H]12)C1COC1 [Compound 16] | < 100 nM |
| O=C(N[C@H]1CCCN2C(=O)COc3ccccc3C3CCC(CC3)OC[C@@H]12)C1CCO1 (stereo in doubt) [Compound 12] | < 100 nM |
| O=C(N[C@H]1CCCN2C(=O)COc3ccccc3C3CCC(CC3)OC[C@@H]12)C1CCOC1 (stereo in doubt) [Compound 5] | 100 to 1000 nM |
| O=C(N[C@H]1CCCN2C(=O)COc3ccccc3C3CCC(CC3)OC[C@@H]12)C1CCOC1 (stereo in doubt) [Compound 6] | 100 to 1000 nM |
| Cc1cccc2c1C1CCC(CC1)OCC1[C@@H](NC(=O)C3CCCO3)CCCN1C(=O)CO2 (some centres unmarked) [Compound 15] | < 100 nM |

Reference: US20240124485A1, “SUBSTITUTED AMIDE MACROCYCLIC COMPOUNDS WITH OREXIN-2 RECEPTOR AGONIST ACTIVITY” (Alkermes, Inc., priority 2021, published 2024)
